The results in this text go back to patent publication US11932870B2, “Compositions and methods for immune cell modulation in adoptive immunotherapies” (Fate Therapeutics, Inc., priority 2016, dated 2024).

Where a name gives a salt, the structure may show the parent alone.

One experiment relates to viable CD4+ population. Briefly: T cell compound screen: CCR7+CD62L+ cells in the viable CD4+ population (flow cytometry). Type of experiment: cell-based, human. Conditions: 10 μM, about 6 days; for CD4 Hit: anti-CD3/anti-CD28 beads, hit = Z-score > +2 for percent or absolute number CCR7+CD62L+ in CD4+; for number or ratio of cells co-expressing CCR7 and CD62L: viable CD4+ population. From the text:
(§1) In Vitro T Cell Culture. Fresh leukopaks (AllCells, Alameda, CA) were obtained from healthy donors, from which T cells were negatively selected using the EasySep Human T cell Enrichment Kit (Stem Cell Technologies, Vancouver, Canada). The freshly isolated T cells were aliquoted and cryopreserved. On the day the screens were initiated, T cells were thawed and washed into X-Vivo 15 with 5% human AB serum, IL-2, pen/strep, and additional supplements. Cells were dispensed into flat-bottom 384-well plates at 5×10^5 cells/ml with anti-CD3/anti-CD28 beads. Individual compounds were added at a final concentration of 10 μM to each well from column 3 to column 22 of each plate. Positive and negative controls were added to additional wells. Cells were incubated for about 6 days at 37 degrees with 5% CO2.
(§2) Flow Cytometry. On Day 6 of culture, cells were stained with a fixable viability marker and fluorophore-conjugated antibodies: CD3, CD4, CD8, CD45RA, CD45RO, CD62L, CCR7, CD27, and CD122 (BD Biosciences, San Jose, CA; and BioLegend, San Diego, CA). Fluorescent absolute counting beads (Spherotech, Lake Forest, IL) were added just prior to acquisition. Data acquisition was performed on a BD Fortessa X-20 (BD Biosciences) and data were analyzed using Treestar software (FlowJo, Ashland, OR) and Spotfire (Tibco, Boston, MA).
(§3) These cells are characterized by expression of CCR7 and CD62L. Therefore, cells co-expressing both of these identifying markers were evaluated. Within the viable CD4+ population and viable CD8+ population, the percent of cells co-expressing CCR7 and CD62L was determined. The expression of either CD62L or CCR7 on T cells, as indicative of the desired T cell subsets, have been described as having favorable functional characteristics for CAR-T cell therapy, and potentially other adoptive T cell therapies.
(§4) The number of events in each of these gates relative to the number of absolute counting beads in each sample was calculated, defining a measure of the absolute number of naïve, stem cell memory, or central memory T cells within the CD4+ and/or CD8+ populations. A z-Score relative to the screened compound samples within each 384-well plate was calculated for each of these four values: 1) percent CCR7+CD62L+in CD4+, 2) percent CCR7+CD62L+in CD8+, 3) absolute relative number of CCR7+CD62L+in CD4+, and 4) absolute number of CCR7+CD62L+in CD8+(FIGS. 1A and 1i). Z-scores were also calculated for the percent viability of all cells within each sample and the relative absolute number of cells within each sample. A “Z-Score” is a statistical measurement of a score's relationship to the mean in a group of scores. AZ-score of 0 means the score is the same as the mean. AZ-score can also be positive or negative, indicating whether it is above or below the mean and by how many standard deviations.
(A flow cytometer gives signals particle by particle.)

Another experiment relates to viable CD8+ population. Briefly: T cell compound screen: CCR7+CD62L+ cells in the viable CD8+ population (flow cytometry). Particulars: 10 μM, about 6 days; for CD8 Hit: anti-CD3/anti-CD28 beads, hit = Z-score > +2 for percent or absolute number CCR7+CD62L+ in CD8+; for number or ratio of cells co-expressing CCR7 and CD62L: viable CD8+ population. The format is cell-based, human.
Text: as §1, §2, §3, §4

Consider `CCC(CO)Nc1nc(NCc2ccccc2)c2ncn(C(C)C)c2n1` (stereo in doubt) [Roscovitine, (S)-Isomer], for which, in the experiment with viable CD4+ population, the “CD4 Hit” value is on record as “CD4”; the “number or ratio of cells co-expressing CCR7 and CD62L” value (“number or ratio” for short) is reported as “increased”.

In the case of `CCCc1c(-c2ccc(O)cc2)nn(-c2ccc(O)cc2)c1-c1ccc(O)cc1` [1,3,5-tris(4-hydroxyphenyl)-4-propyl-1H-pyrazole], in the experiment on viable CD4+ population, the “CD4 Hit” value is given as “CD4”; the “number or ratio” value was “increased”.

As to `N.S=C(S)N1CCCC1` [1-Pyrrolidinecarbodithioic acid, ammonium salt], in the experiment with viable CD4+ population, the “CD4 Hit” value is listed as “CD4”; the “number or ratio” value is given as “increased”.

As to `CN(C)[C@@H]1C(=O)C(C(N)=O)=C(O)[C@@]2(O)C(=O)C3=C(O)c4c(O)ccc(Cl)c4[C@@H](O)[C@H]3C[C@@H]12.Cl` [2-Naphthacenecarboxamide, 7-chloro-4-(dimethylamino)-1,4,4a,5,5a,6,11,12a-octahy], in the experiment on viable CD8+ population, the “CD8 Hit” value was “CD8”; the “number or ratio” value was “increased”.

On to `Nc1ncn([C@@H]2O[C@H](CO)[C@@H](O)[C@H]2O)c(=O)n1` [5-Azacytidine], for which, in the experiment on viable CD4+ population, the “CD4 Hit” value is listed as “CD4”; the “number or ratio” value was “increased”. Further, in the experiment on viable CD8+ population, the “CD8 Hit” value is listed as “CD8”; the “number or ratio” value is listed as “increased”.

For the compound `Sc1ncnc2nc[nH]c12` [6-Mercaptopurine], in the experiment on viable CD4+ population, the “CD4 Hit” value is reported as “CD4”; the “number or ratio” value is reported as “increased”. Besides, in the experiment with viable CD8+ population, the “CD8 Hit” value is listed as “CD8”; the “number or ratio” value is listed as “increased”.

For `Oc1c(Cl)cc(Cl)c2cccnc12` [8-Quinolinol, 5,7-dichloro-], in the experiment with viable CD4+ population, the “CD4 Hit” value is recorded as “CD4”; the “number or ratio” value is given as “increased”. Besides, in the experiment with viable CD8+ population, the “CD8 Hit” value is given as “CD8”; the “number or ratio” value is “increased”.

As to `Oc1c(I)cc(Cl)c2cccnc12` [8-Quinolinol, 5-chloro-7-iodo-], in the experiment on viable CD4+ population, the “CD4 Hit” value is given as “CD4”; the “number or ratio” value is on record as “increased”. Moreover, in the experiment on viable CD8+ population, the “CD8 Hit” value was “CD8”; the “number or ratio” value was “increased”.

Take `CC[n+]1c(/C=C/C=C2/N(C)c3ccccc3C2(C)C)sc2ccccc21.[I-]` [AC-93253 iodide]: in the experiment with viable CD4+ population, the “CD4 Hit” value was “CD4”; the “number or ratio” value was “increased”. In the experiment on viable CD8+ population, the “CD8 Hit” value is given as “CD8”; the “number or ratio” value is on record as “increased”.

For `COc1ccc(-c2cc3nccn3c(Nc3ncccc3C(N)=O)n2)cc1OC` [BAY 61-3606], in the experiment on viable CD4+ population, the “CD4 Hit” value is “CD4”; the “number or ratio” value is “increased”.

Turning to `COc1cc2nc(N3CCCN(C)CC3)nc(NC3CCN(Cc4ccccc4)CC3)c2cc1OC` [BIX01294], in the experiment with viable CD4+ population, the “CD4 Hit” value was “CD4”; the “number or ratio” value is “increased”.

With `O=C(O)CN(CCN(CC(=O)O)CC(=O)O)CCN(CC(=O)O)CC(=O)O` [Diethylenetriaminepentaacetic acid, pentasodium], in the experiment with viable CD4+ population, the “CD4 Hit” value is “CD4”; the “number or ratio” value was “increased”. Besides, in the experiment with viable CD8+ population, the “CD8 Hit” value is on record as “CD8”; the “number or ratio” value is given as “increased”.

On to `CC[N+](C)(C)c1cccc(O)c1` [Edrophonium chloride], for which, in the experiment on viable CD8+ population, the “CD8 Hit” value is “CD8”; the “number or ratio” value is recorded as “increased”.

Regarding `C[C@]12CC[C@@H]3c4ccc(O)cc4C[C@@H](CCCCCCCCC[S+]([O-])CCCC(F)(F)C(F)(F)F)[C@H]3[C@@H]1CC[C@@H]2O` (stereo partly drawn) [Fulvestrant], in the experiment on viable CD8+ population, the “CD8 Hit” value is listed as “CD8”; the “number or ratio” value is listed as “increased”.

For `CC(C)C1CCC2(CO2)C2C(=O)OCC(C(=O)O)=CC12` (stereo not drawn) [Heptelidic acid], in the experiment on viable CD4+ population, the “CD4 Hit” value is given as “CD4”; the “number or ratio” value is “increased”. Moreover, in the experiment with viable CD8+ population, the “CD8 Hit” value is reported as “CD8”; the “number or ratio” value is on record as “increased”.

As to `O=C(N/N=C/c1ccc([N+](=O)[O-])o1)c1ccc(O)cc1` [Nifuroxazide], in the experiment with viable CD8+ population, the “CD8 Hit” value was “CD8”; the “number or ratio” value is given as “increased”.

Regarding `C=CCc1cccc(/C=N/NC(=O)CN2CCN(Cc3ccccc3)CC2)c1O` [PAC-1], in the experiment with viable CD4+ population, the “CD4 Hit” value is “CD4”; the “number or ratio” value is “increased”.

On to `Oc1cccc(-c2nc(N3CCOCC3)c3oc4ncccc4c3n2)c1` [PI-103], for which, in the experiment on viable CD4+ population, the “CD4 Hit” value is given as “CD4”; the “number or ratio” value is on record as “increased”. Also, in the experiment with viable CD8+ population, the “CD8 Hit” value is “CD8”; the “number or ratio” value is reported as “increased”.

Take `C=CC1=C(C)c2cc3[nH]c(cc4nc(cc5[nH]c(cc1n2)c(C)c5CCC(=O)O)C(CCC(=O)O)=C4C)c(C)c3C=C` [Protoporphyrin IX disodium]: in the experiment on viable CD4+ population, the “CD4 Hit” value is “CD4”; the “number or ratio” value was “increased”.

For the compound `CN(C)c1ccc(C=C2C(=O)Nc3ccccc32)cc1` [SU 4312], in the experiment with viable CD8+ population, the “CD8 Hit” value is given as “CD8”; the “number or ratio” value is “increased”.

Turning to `CN[C@H]1CC[C@@H](c2ccc(Cl)c(Cl)c2)c2ccccc21` [Sertraline], the “CD4 Hit” value in the experiment on viable CD4+ population is recorded as “CD4”. For the same compound, the “CD8 Hit” value in the experiment on viable CD8+ population was “CD8”.

As for `CCCc1nc2c(C)cc(-c3nc4ccccc4n3C)cc2n1Cc1ccc(-c2ccccc2C(=O)O)cc1` [Telmisartan], in the experiment on viable CD4+ population, the “CD4 Hit” value is recorded as “CD4”; the “number or ratio” value was “increased”.

With `CC(C)(C)c1ccc(C(O)CCCN2CCC(C(O)(c3ccccc3)c3ccccc3)CC2)cc1` (stereo not drawn) [Terfenadine], in the experiment on viable CD4+ population, the “CD4 Hit” value is recorded as “CD4”; the “number or ratio” value is on record as “increased”.

In the case of `C/C=C(/C)C(=O)O[C@H]1C(C)=C2[C@H]([C@@H]1OC(=O)CCCCCCC)[C@@](C)(OC(C)=O)C[C@H](OC(=O)CCC)[C@@]1(O)[C@H]2OC(=O)[C@@]1(C)O` [Thapsigargin], in the experiment on viable CD8+ population, the “CD8 Hit” value is “CD8”; the “number or ratio” value was “increased”.

On to `O=C(O)Cc1cc(I)c(Oc2ccc(O)c(I)c2)c(I)c1` [Tiratricol], for which, in the experiment on viable CD4+ population, the “CD4 Hit” value is listed as “CD4”; the “number or ratio” value is on record as “increased”. In addition, in the experiment with viable CD8+ population, the “CD8 Hit” value is recorded as “CD8”; the “number or ratio” value is reported as “increased”.

For `NC1CCN(c2nc3c(cc2F)c(=O)c(C(=O)O)cn3-c2ccc(F)cc2F)C1` (stereo not drawn) [Tosufloxacin hydrochloride], in the experiment on viable CD4+ population, the “CD4 Hit” value is on record as “CD4”; the “number or ratio” value was “increased”.

Take `N#CC(=C(/N)Sc1ccccc1N)/C(C#N)=C(\N)Sc1ccccc1N` [U0126]: in the experiment with viable CD4+ population, the “CD4 Hit” value is “CD4”; the “number or ratio” value was “increased”.
